Literature values, collected in patent publication US6919335B2, “Heterocycles that are inhibitors of IMPDH enzyme” (Bristol-Myers Squibb Co., priority 2000, dated 2005).
Where two headings read alike, the source gives them in different places.

Assays:
[1] = test system: proinflammatory cytokines (IL-2, IL-4, and IFN); conditions: RT-PCR; Rol 10^−7 M, MPA 10^−8 M, or the combination
[2] = test system: antigen-specific T lymphocyte responses; conditions: for % inhibition of proliferation: Rol plus MPA; for synergistic effect on inhibition of antigen-induced proliferation: in combination with Rol 10^−7 M; for approximate IC10: inhibition of antigen-induced proliferation
IMPDH types I and II = conditions: RT-PCR, low and high concentrations, alone or both

For `COc1c(C)c2c(c(O)c1C/C=C(\C)CCC(=O)O)C(=O)OC2` [MPA, mycophenolic acid], the “downregulation in the generation of proinflammatory cytokines” value [1] is given as “no significant downregulation”, the “% inhibition of proliferation” value ([2]; with deoxyguanosine (antagonist of MPA on IMPDH), p<0.05) is given as 35±12% and the “% inhibition of proliferation” value ([2]; without deoxyguanosine) is given as 81±16%. The “synergistic effect on inhibition of antigen-induced proliferation” value [2] was “marked synergistic effect” and the “gene expression for IMPDH types I and II” value (IMPDH types I and II) was “remained unaffected”.

For `CCCC(=O)Nc1ncnc2c1ncn2[C@@H]1O[C@@H]2COP(=O)(O)O[C@H]2[C@H]1OC(=O)CCC` [dibuteryl-cAMP], the “approximate IC10” value [2] is listed as roughly 2e-06 M.

In the case of `COc1ccc(C2CNC(=O)C2)cc1OC1CCCC1` (stereo not shown) [rolipram, 4-[3-(cyclopentyloxy)-4-methoxy-phenyl]-2-pyrrolidinone], the “downregulation in the generation of proinflammatory cytokines” value [1] is given as “no significant downregulation”, the “approximate IC10” value [2] is given as ~10^−7 M and the “gene expression for IMPDH types I and II” value (IMPDH types I and II) is given as “remained unaffected”.

In the case of `C=CC[C@@H]1/C=C(\C)C[C@H](C)C[C@H](OC)[C@H]2O[C@@](O)(C(=O)C(=O)N3CCCC[C@H]3C(=O)O[C@H](/C(C)=C/[C@@H]3CC[C@@H](O)[C@H](OC)C3)[C@H](C)[C@@H](O)CC1=O)[C@H](C)C[C@@H]2OC` [tacrolimus], the “synergistic effect on inhibition of antigen-induced proliferation” value [2] is listed as “little or no synergistic effect”.
